Results as given in patent US10400008B2, “Modulators of the SRC-kinase activity for preventing or treating metastatic cancer” (Cancer Research Technology Limited, priority 2013, dated 2019).
“And” between values parts separate entries of the source, which are not always exact repeats. Identical values can stand only once.

How the values were obtained:
[1] = test system: offspring from dosed females; details: mouse, in vivo
From the text: Offspring from dosed females were mated and checked for fertility to determine possible inheritable effects.

[2] = test system: plugs of uterine tissue (endometriosis lesions); test: Dose ranging prevention study: lesion burden, growth and establishment of transplanted uterine tissue plugs; format: in vivo, C57BL6 mice; details: for Lesion establishment, single plug (P1-P4, M1, M2): 1 or 0 per plug, individual mouse; for Lesion establishment, single plug (P1-P4, M1, M2) / Lesion burden, Ave / Lesion growth, Ave / Lesion burden, Mean / Lesion establishment, Mean / Lesion growth, Mean / Lesion burden, single plug (P1-P6) / Lesion growth, single plug (P1-P4, M1, M2) / Lesion establishment, Ave: prevention; for Lesion burden, Ave / Lesion growth, Ave: average per mouse; for lesion burden / lesion growth: control 7.18; for Lesion burden, Mean / Lesion establishment, Mean / Lesion growth, Mean: group mean; for Lesion burden, single plug (P1-P6) / Lesion growth, single plug (P1-P4, M1, M2): individual mouse and plug; for Lesion establishment, Ave: per mouse
AR/Src complex = molecular target: T1, AR/Src complex (Homo sapiens, UniProt P12931); test: EGFR/AR/Src association by immunoprecipitation in EGF-stimulated HT1080 cells; format: cell-based; details: EGF 100 ng/ml 10 min, peptide 1 nM
T1 construct: endogenous in cells; host or cells: HT1080 human fibrosarcoma cells
T1 sequence (P12931 2-536 limits assumed, one chain of several): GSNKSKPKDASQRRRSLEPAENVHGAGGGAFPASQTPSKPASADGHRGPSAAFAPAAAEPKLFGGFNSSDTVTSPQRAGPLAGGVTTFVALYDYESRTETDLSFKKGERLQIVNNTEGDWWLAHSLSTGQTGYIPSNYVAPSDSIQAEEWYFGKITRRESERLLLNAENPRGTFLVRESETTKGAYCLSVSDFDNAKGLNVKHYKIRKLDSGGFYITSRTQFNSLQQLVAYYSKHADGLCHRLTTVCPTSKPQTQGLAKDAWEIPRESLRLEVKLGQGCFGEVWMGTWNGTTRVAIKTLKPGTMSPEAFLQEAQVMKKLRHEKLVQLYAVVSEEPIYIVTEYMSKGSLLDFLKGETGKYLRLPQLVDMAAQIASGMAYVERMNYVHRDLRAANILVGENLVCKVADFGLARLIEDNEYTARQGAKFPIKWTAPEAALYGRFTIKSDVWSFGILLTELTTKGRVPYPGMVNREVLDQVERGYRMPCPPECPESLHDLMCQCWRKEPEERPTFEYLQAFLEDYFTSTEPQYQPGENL
Procedure: (§1) FIG. 3: Inhibition by S1 peptide of AR/Src complex, Src activation and DNA synthesis triggered by EGF in HT1080 cells. Quiescent HT1080 cells were used. The cells were left un-stimulated or stimulated for 10 min with EGF (at 100 ng/ml; Roche) in the absence or presence of S1 or Ss peptide (both at 1 nM). Casodex (at 10 μM) was used for comparison with the S1 peptide. The same concentrations of peptides and Casodex were used throughout the experiments. Upper section in A, the Western blot of HT1080 cell lysates with anti-EGFR antibody is shown. […] Lower section in A, lysates were immune-precipitated with anti EGFR Ab and proteins in immune-complexes were detected using antibodies against the indicated proteins. In B, lysates were immune-precipitated with the anti-Src MAb and Src activity in immune-complexes was assayed using enolase as a substrate. In C, cells on coverslips were left untreated or treated for 18 h with the indicated compounds. After in vivo pulse with BrdU (100 μM; Sigma), BrdU incorporation was analyzed by IF and expressed as % of total nuclei. Mean and SEM are shown. n represents the number of experiments.
(§2) Src tyrosine kinase was immune-precipitated, detected and assayed using enolase as a substrate (15). Src, EGF-R and tubulin were detected from cell lysates using appropriate antibodies (7). AR was immune-precipitated and detected as reported (3). […]

MMP-9 = MMP-9 release from HT1080 cells (fluorescent AK411 kit); format: cell-based, human; details: 6 h, peptide 1 nM
Procedure: FIG. 4: The S1 peptide inhibits EGF-stimulated migration and MMP-9 secretion in HT1080 cells. Quiescent HT1080 cells were used. In A, cells were left untreated or treated for 6 h with the indicated compounds. MMP-9 release was assayed as described in Methods. In B, cells were allowed to migrate for 6 h in Trans-well filters in the absence or presence of the indicated compounds. Migrated cells were stained and counted as reported in Methods. In A and B, data were expressed as relative increase. Mean and SEM is shown. n represents the number of experiments. In C, cells were wounded and then left unstimulated or stimulated for 6 h with the indicated compounds. Contrast-phase images are representative of 3 different experiments, each performed in duplicate.
BrdU incorporation, migration and wound healing analysis were done as described (3, 11). MMP-9 activity was assayed (12, 13), using the fluorescent AK411 kit (BIOMOL Res. Lab.).

PC-3 cells = test: PC-3 cell proliferation, WST-1; format: cell-based, human; details: 100 pM-1 μM, WST-1 at days 3, 5, 7, 9; statistically significant with all doses above 100 pM
Procedure: We have studied the effects of Val201 on cell proliferation of the ER positive human prostate cancer cell line PC-3 in vitro and growth and metastatis in vivo in an orthotopic xenograft model. The proliferation effects were studied for 100 pM, 1 nM, 10 nM, 100 nM and 1 μM concentrations of VAL201 by measuring WST-1 values at days 3, 5, 7 and 9. Groups with vehicle and 1 μM gemcitabine as reference compound were included in the study. The xenograft study was performed with 6-7 week-old immunodeficient BALB/c nude mice that were allocated to 6 groups (with n=15/group) according to the body weight, one group receiving vehicle and the others VAL201 at doses 0.04, 0.4, 4, 10 and 20 mg/kg. PC-3 cells in Matrigel were inoculated orthotopically into the prostate. Subcutaneous dosing was started at day 1 and continued daily for 28 days. The mice were weighed twice a week. Orthotopic tumors were measured by calliper and the prostate and the regional lymph nodes were harvested at sacrifice. Metastases in lymph nodes were determined from HE stained paraffin sections.

Src = molecular target: T2, Src (Homo sapiens, UniProt P12931); test: Src kinase assay in immune-complexes with enolase as substrate, EGF-stimulated HT1080 cells; format: cell-based; details: EGF 100 ng/ml 10 min, peptide 1 nM
T2 construct: lysates were immune-precipitated with the anti-Src MAb and Src activity in immune-complexes was assayed using enolase as a substrate; endogenous in cells; host or cells: HT1080 human fibrosarcoma cells
T2 sequence (P12931 whole entry): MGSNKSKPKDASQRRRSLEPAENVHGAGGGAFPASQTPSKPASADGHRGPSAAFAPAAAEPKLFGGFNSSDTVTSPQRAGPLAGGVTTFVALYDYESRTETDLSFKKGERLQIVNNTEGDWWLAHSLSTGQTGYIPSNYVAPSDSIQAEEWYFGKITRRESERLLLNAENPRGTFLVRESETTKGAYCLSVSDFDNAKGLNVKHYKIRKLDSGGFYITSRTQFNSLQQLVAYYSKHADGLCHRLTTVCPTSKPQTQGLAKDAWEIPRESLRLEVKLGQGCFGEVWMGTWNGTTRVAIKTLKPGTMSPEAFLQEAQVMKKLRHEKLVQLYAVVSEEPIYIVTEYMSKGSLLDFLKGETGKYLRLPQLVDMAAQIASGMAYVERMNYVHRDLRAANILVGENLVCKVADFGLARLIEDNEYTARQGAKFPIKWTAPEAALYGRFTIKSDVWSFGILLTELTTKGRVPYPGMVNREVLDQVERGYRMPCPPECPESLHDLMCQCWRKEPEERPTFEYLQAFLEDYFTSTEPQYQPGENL
Procedure: as §1, §2

[3] = 1 ng/mouse s.c. daily, listed as ValiRx1
[4] = 10 ng/mouse s.c. daily, listed as ValiRx1
[5] = 100 ng/mouse s.c. daily, listed as ValiRx1
[6] = first of three dose groups (1 ng, 10 ng, 100 ng daily s.c.)
[7] = second of three dose groups (1 ng, 10 ng, 100 ng daily s.c.)
[8] = third of three dose groups (1 ng, 10 ng, 100 ng daily s.c.)

Substance: Ac-PPPHPHARIK-NH2 [VAL001]
- fertility of offspring from dosed females [1]: no abnormalities noted
- Lesion establishment, single plug (P1-P4, M1, M2) [2, 3]: 1 (29×) and 0
- Lesion establishment, single plug (P1-P4, M1, M2) [2, 4]: 1 (29×) and 0
- Lesion establishment, single plug (P1-P4, M1, M2) ([2]; 100 ng/mouse s.c. daily): 1
- Lesion burden, Ave [2, 3]: 6.5 mm^2 and 8.5 mm^2 and 1.1 mm^2 and 1.9 mm^2 and 12.1 mm^2
- Lesion growth, Ave [2, 3]: 6.5 mm^2 and 8.5 mm^2 and 1.3 mm^2 and 1.9 mm^2 and 12.1 mm^2
- Lesion burden, Ave [2, 4]: 2.9 mm^2 and 6.7 mm^2 and 11.3 mm^2 and 3.3 mm^2 and 3.5 mm^2
- Lesion growth, Ave [2, 4]: 2.9 mm^2 and 6.7 mm^2 and 11.3 mm^2 and 3.3 mm^2 and 4.2 mm^2
- Lesion burden, Ave [2, 5]: 11.8 mm^2 and 1.8 mm^2 and 3.2 mm^2 and 3.0 mm^2 and 2.9 mm^2
- Lesion growth, Ave [2, 5]: 11.8 mm^2 and 1.8 mm^2 and 3.2 mm^2 and 3.0 mm^2 and 2.9 mm^2
- lesion growth following treatment ([2]; daily 1 ng, 10 ng or 100 ng s.c., dosed group vs control): significantly reduced
- lesion burden [2, 6]: 6.02 mm^2
- lesion growth [2, 6]: 6.23 mm^2
- Lesion burden, Mean ([2]; 1 ng/mouse s.c. daily): 6.02 mm^2
- Lesion establishment, Mean ([2]; 1 ng/mouse s.c. daily): 96.67%
- Lesion growth, Mean ([2]; 1 ng/mouse s.c. daily): 6.23 mm^2
- Lesion burden, Mean ([2]; 10 ng/mouse s.c. daily): 5.53 mm^2
- Lesion establishment, Mean ([2]; 10 ng/mouse s.c. daily): 96.67%
- Lesion growth, Mean ([2]; 10 ng/mouse s.c. daily): 5.72 mm^2
- Lesion burden, Mean ([2]; 100 ng/mouse s.c. daily): 4.52 mm^2
- Lesion establishment, Mean ([2]; 100 ng/mouse s.c. daily): 100.00%
- Lesion growth, Mean ([2]; 100 ng/mouse s.c. daily): 4.52 mm^2
- Lesion burden, single plug (P1-P6) [2, 3]: 1.1 mm^2 (3×) and 3.1 mm^2 and 2.5 mm^2 and 4.2 mm^2 and 16.7 mm^2 and 15.2 mm^2 and 3.8 mm^2 (2×) and 0.2 mm^2 (3×) and 6.2 mm^2 and 0.5 mm^2 and 9.4 mm^2 and 0.0 mm^2 and 3.5 mm^2 (2×) and 17.0 mm^2 and 11.2 mm^2 and 8.0 mm^2 (2×) and 15.1 mm^2 and 5.7 mm^2 and 10.2 mm^2 and 10.6 mm^2 and 16.6 mm^2 and 1.8 mm^2 and 0.1 mm^2
- Lesion growth, single plug (P1-P4, M1, M2) [2, 3]: 1.131 mm^2 (3×) and 3.142 mm^2 and 2.545 mm^2 and 4.155 mm^2 and 16.74 mm^2 and 15.21 mm^2 and 3.801 mm^2 (2×) and 0.196 mm^2 (3×) and 6.158 mm^2 and 0.503 mm^2 and 9.425 mm^2 and 3.456 mm^2 and 3.464 mm^2 and 16.96 mm^2 and 11.2 mm^2 and 8.042 mm^2 (2×) and 15.1 mm^2 and 5.694 mm^2 and 10.18 mm^2 and 10.56 mm^2 and 16.62 mm^2 and 1.767 mm^2 and 0.126 mm^2
- Lesion burden, single plug (P1-P6) [2, 4]: 1.0 mm^2 (3×) and 3.5 mm^2 (5×) and 10.9 mm^2 and 7.3 mm^2 and 10.0 mm^2 and 4.5 mm^2 (2×) and 12.6 mm^2 and 7.0 mm^2 and 9.6 mm^2 and 3.1 mm^2 (2×) and 1.1 mm^2 and 2.5 mm^2 and 0.2 mm^2 and 6.7 mm^2 and 7.1 mm^2 and 5.4 mm^2 and 21.1 mm^2 and 12.1 mm^2 and 3.0 mm^2 and 0.0 mm^2 and 4.0 mm^2 and 9.7 mm^2
- Lesion growth, single plug (P1-P4, M1, M2) [2, 4]: 0.95 mm^2 (3×) and 3.464 mm^2 (5×) and 10.95 mm^2 and 7.288 mm^2 and 10.02 mm^2 and 4.524 mm^2 (2×) and 12.57 mm^2 and 7.037 mm^2 and 9.621 mm^2 and 3.142 mm^2 (2×) and 1.131 mm^2 and 2.545 mm^2 and 0.196 mm^2 and 6.739 mm^2 and 7.069 mm^2 and 5.372 mm^2 and 21.11 mm^2 and 12.06 mm^2 and 2.969 mm^2 and 3.958 mm^2 and 9.66 mm^2
- Lesion burden, single plug (P1-P6) [2, 5]: 7.0 mm^2 and 18.5 mm^2 and 11.0 mm^2 and 4.5 mm^2 and 2.8 mm^2 (3×) and 2.3 mm^2 (3×) and 2.0 mm^2 (2×) and 3.1 mm^2 and 3.5 mm^2 (3×) and 1.5 mm^2 and 4.9 mm^2 and 8.4 mm^2 and 12.6 mm^2 and 13.2 mm^2 and 0.2 mm^2 and 1.0 mm^2 and 0.3 mm^2 (2×) and 3.8 mm^2 (2×) and 7.5 mm^2 and 2.5 mm^2 and 1.8 mm^2
- Lesion growth, single plug (P1-P4, M1, M2) [2, 5]: 7.037 mm^2 and 18.47 mm^2 and 11 mm^2 and 4.453 mm^2 and 2.827 mm^2 (2×) and 2.27 mm^2 (3×) and 2.011 mm^2 (2×) and 3.142 mm^2 and 3.464 mm^2 (3×) and 1.539 mm^2 and 4.909 mm^2 and 8.357 mm^2 and 12.57 mm^2 and 13.2 mm^2 and 0.196 mm^2 and 0.95 mm^2 and 0.283 mm^2 (2×) and 3.801 mm^2 (2×) and 7.548 mm^2 and 2.545 mm^2 and 2.835 mm^2 and 1.767 mm^2
- Lesion establishment, Ave [2, 3]: 100% (4×) and 83.33%
- Lesion establishment, Ave [2, 4]: 100% (4×) and 83.33%
- Lesion establishment, Ave ([2]; 100 ng/mouse s.c. daily): 100%
- lesion burden [2, 7]: 5.53 mm^2
- lesion growth [2, 7]: 5.72 mm^2
- lesion burden [2, 8]: 4.52 mm^2
- lesion growth [2, 8]: 4.52 mm^2
- EGF-induced AR/Src association and AR/Src association with EGF-R (AR/Src complex): abolishes
- EGF-stimulated MMP-9 secretion (MMP-9): inhibits
- PC-3 cell proliferation (PC-3 cells): dose-dependent inhibition
- EGF stimulation of Src activity (Src): almost completely abolished
